As a reminder, the IC50 is the concentration that inhibits the measured activity by half.

The values that follow come from ChEMBL document CHEMBL4622990, “Synthesis and Antitumor Activity of C-7-Alkynylated and Arylated Pyrrolotriazine C-Ribonucleosides” (ACS Med Chem Lett, 2020).

Calls of active or inactive are those of the source. The rule behind the calls is not given here.

The test system of one test is LN-229. Briefly: Antiproliferative activity against human LN229 cells assessed as reduction in cell viability incubated for 72 hrs by IncuCyte live-cell imaging assay. Format: functional, cell-based. The conditions noted are these: LN-229, 72 h.
The subject of test [1] is CAPAN-1. Briefly: Antiproliferative activity against human Capan1 cells assessed as reduction in cell viability incubated for 72 hrs by IncuCyte live-cell imaging assay. The conditions noted are these: CAPAN-1, 72 h. The format is functional, cell-based.
The next test has as its system HCT-116. The test is described as follows: Antiproliferative activity against human HCT116 cells assessed as reduction in cell viability incubated for 72 hrs by IncuCyte live-cell imaging assay. The note with it: HCT-116, 72 h. The format is functional, cell-based.
The next test deals with NCI-H460. Briefly: Antiproliferative activity against human NCI-H460 cells assessed as reduction in cell viability incubated for 72 hrs by IncuCyte live-cell imaging assay. Format: functional, cell-based. The note with it: NCI-H460, 72 h.
The nature of test [2]: Antiproliferative activity against human DND41 cells assessed as reduction in cell viability incubated for 72 hrs by IncuCyte live-cell imaging assay. The format is functional, cell-based. The note with it: DND41, 72 h.
In the next test the test system is HL-60. Briefly: Antiproliferative activity against human HL60 cells assessed as reduction in cell viability incubated for 72 hrs by IncuCyte live-cell imaging assay. The format is functional, cell-based. The note with it: HL-60, 72 h.
For another test, the system named is K562. Briefly: Antiproliferative activity against human K562 cells assessed as reduction in cell viability incubated for 72 hrs by IncuCyte live-cell imaging assay. The conditions noted are these: K562, 72 h. Format: functional, cell-based.
In another test the test system is Z-138. Briefly: Antiproliferative activity against human Z138 cells assessed as reduction in cell viability incubated for 72 hrs by IncuCyte live-cell imaging assay. Format: functional, cell-based. The conditions noted are these: Z-138, 72 h.
For another test, the target named is Tubulin (Homo sapiens) (UniProt P68371+Q9H4B7+P0DPH7+P68366+Q13509+Q71U36+P04350+Q3ZCM7+P07437+P68363+Q9BQE3+Q6PEY2+Q13885+Q9BVA1+Q9BUF5). The test is described as follows: Inhibition of tubulin polymerization in human Hep2 cells at 100 uM after 3 hrs by DAPI-staining based fluorescence microscopic assay. The format is cell-based. The note with it: HEp-2.
Another test concerns Salmon testes DNA. The test is described as follows: Binding affinity to salmon sperm DNA assessed as DNA intercalation at 20 uM incubated for 20 mins by acridine orange orange dye based fluorescence polarization assay. Format: nucleic-acid assay. The note with it: Salmonidae. In general terms: In fluorescence polarisation assays a small probe gives low polarisation when free and higher when bound to something large.

Test [3] deals with HEp-2. The test is described as follows: Induction of DNA damage in human Hep2 cells assessed as gamma-H2AX positive cells at 100 uM after 24 hrs by DAPI staining based immunofluorescence analysis (reference value: 0.51%). The format is functional.
Test [4] relates to HEp-2. Briefly: Induction of DNA damage in human Hep2 cells assessed as gamma-H2AX positive cells at 10 uM after 24 hrs by DAPI staining based immunofluorescence analysis relative to control. Format: functional.
Test [5] relates to HEp-2. The test is described as follows: Induction of DNA damage in human Hep2 cells assessed as gamma-H2AX positive cells at 1 uM after 24 hrs by DAPI staining based immunofluorescence analysis relative to control. The format is functional.
A further test concerns PBMC. The test is described as follows: Induction of apoptosis in human PBMC assessed as caspase 3/7 activation incubated for 72 hrs and measured at 3 hrs interval by IncuCyte Caspase 3/7 Green reagent based assay. The format is cell-based.
In test [6] the test system is HEp-2. Briefly: Induction of DNA damage in human Hep2 cells assessed as increase in gamma-H2AX positive cells after 24 hrs by DAPI staining based immunofluorescence analysis. Format: functional, cell-based.
Test [7] concerns CAPAN-1. Briefly: Induction of apoptosis in human Capan1 cells assessed as increase in apoptotic cells incubated for 72 hrs and measured at 3 hrs interval by IncuCyte Caspase 3/7 Green reagent based assay. Format: functional, cell-based.

Turning to `CCCC#Cc1cc([C@@H]2O[C@H](CO)[C@@H](O)[C@H]2O)n2ncnc(N)c12`, the IC50 in the test with LN-229 amounted to 40 nM; with CAPAN-1 [1] it was 20 nM; in the test with HCT-116, 200 nM; in the test on NCI-H460, 400 nM; in test [2], 80 nM; in the test with HL-60, 200 nM. The IC50 with K562 is 1100 nM; in the test on Z-138, 20 nM; in the test on PBMC, 50 to 11000 nM. In addition, the inhibition entry on Tubulin (Homo sapiens) is “Active”. Besides, the result in the test with Salmon testes DNA was Active. Further, the Activity is 9.38% with HEp-2 [3], 0.82% in the test on HEp-2 [4], 1.14% with HEp-2 [5] and “Dose-dependent effect” in the test on HEp-2 [6].

For `Nc1ncnn2c([C@@H]3O[C@H](CO)[C@@H](O)[C@H]3O)cc(C#CC3CC3)c12`, the concentration for half-maximal inhibition (IC50) in the test on LN-229 came to 30 nM; in the test with CAPAN-1 [1], 20 nM; in the test on HCT-116, 50 nM; in the test with NCI-H460 it was 80 nM; in [2], 40 nM; in the test with HL-60, 40 nM. Further, the IC50 in the test with K562 was 40 nM; in the test on Z-138 it was 20 nM; in the test with PBMC, 100 to 400 nM. In addition, on Tubulin (Homo sapiens), the inhibition entry was “Active”. Further, the result in the test with Salmon testes DNA and in the test on CAPAN-1 [7] was Active. The Activity is 16.22% in the test on HEp-2 [3], 5.2% in the test with HEp-2 [4], 3.22% in the test on HEp-2 [5] and “Dose-dependent effect” with HEp-2 [6].
